In publication PMC6409085, “Three odorant-binding proteins are involved in the behavioral response of Sogatella furcifera to rice plant volatiles” (PeerJ, 2019):
pIC50: −log10 of the molar value. Values joined by “and” are separate entries in the source; they are usually repeats but may differ in a detail not shown here. Equal values may be shown once.

Columns and labels:
S. furcifera adults = test: Y-tube olfactometer behavioral trials; format: in vivo, Sogatella furcifera; settings: odorant 50 µL/L vs hexane; adults
Experimental: To test the effect of the rice odorants on the behavior of S. furcifera adults, a glass Y-tube olfactometer (inner diameter 2.0 cm, stem 13 cm, arms 10 cm, angle of arms 60°) according to the previously described ([Wang et al., 2014b]) was employed. An airtight cubic box (70 by 45 by 30 cm) was used to position Y-tube, and the Y-tube was lighted by a 30-W filament lamp 25 cm above it. Air that filtered through activated charcoal and humidified with doubly distilled water was pumped in both arms at a flow rate of 300 mL/min. Two filter paper strips (10 by 1 cm) containing 100 µL odorant source (50 µL/L) and 100 µL control hexane were placed in two holding chambers in the front of the olfactometer, respectively. A S. furcifera adult (2 days after emergence, starved for 0.5 h) was randomly chosen and placed in the stem of the Y-tube. Each insect was given 10 min to choose between the two arms of the Y-tube, the choice was noted if the planthopper reached one-half of the arms’ lengths and stayed in the arm for more than 1 min. Besides, S. furcifera was considered as having no orientation preference. Forty-five individuals were used for each compound, each insect used only once. And the dual-choice experiment was done in an environmentally controlled room (25 ± 1 °C and 50% RH). A Chi-squared test was used to analyze the behavioral assay data by using SPSS19.0 (SPSS Inc., Chicago, IL, USA) software.

SfurOBP3 = SfurOBP3 (Sogatella furcifera, UniProt V5T818); test: biochemical; format: binding; settings: for Fluorescence competitive binding assay, fluorescence intensity: OBP3, three replicate columns
In short: (§1)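 First, 2.0 µM protein in 50 mM Tris-HCl (pH 7.4) was titrated with 1-NPN to obtain K1-NPN. Then odorants (2–20 µM final) competed against 2.0 µM 1-NPN, with fluorescence (ex 337 nm) recorded after 2 min. Ki was computed from IC50 via Ki = IC50/(1 + [1-NPN]/K1-NPN).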

SfurOBP11 = SfurOBP11 (Sogatella furcifera, UniProt V5T6E3); test: biochemical; format: binding
In short: as §1

SfurOBP2 = SfurOBP2 (Sogatella furcifera, UniProt V5T759); test: biochemical; format: binding
In short: as §1

SfurOBP1 = SfurOBP1 (Sogatella furcifera, UniProt V5T8N5); test: biochemical; format: binding; settings: for Fluorescence competitive binding assay, fluorescence intensity: OBP1, three replicate columns
In short: as §1

Chain of SfurOBP2 (V5T759 entry or part of it): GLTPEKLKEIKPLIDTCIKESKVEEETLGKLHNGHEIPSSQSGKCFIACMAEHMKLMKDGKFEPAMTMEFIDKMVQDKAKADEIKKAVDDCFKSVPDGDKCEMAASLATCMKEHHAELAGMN
Chain of SfurOBP11 (V5T6E3 entry or part of it): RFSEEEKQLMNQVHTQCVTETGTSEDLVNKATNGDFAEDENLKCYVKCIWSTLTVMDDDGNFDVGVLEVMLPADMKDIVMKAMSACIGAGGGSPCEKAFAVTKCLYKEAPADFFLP
Chain of SfurOBP1 (V5T8N5 entry or part of it): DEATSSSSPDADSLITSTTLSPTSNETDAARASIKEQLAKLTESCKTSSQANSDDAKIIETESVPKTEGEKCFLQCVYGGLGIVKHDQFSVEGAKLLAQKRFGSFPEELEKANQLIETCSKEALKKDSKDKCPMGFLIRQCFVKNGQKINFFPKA
Chain of SfurOBP3 (V5T818 entry or part of it): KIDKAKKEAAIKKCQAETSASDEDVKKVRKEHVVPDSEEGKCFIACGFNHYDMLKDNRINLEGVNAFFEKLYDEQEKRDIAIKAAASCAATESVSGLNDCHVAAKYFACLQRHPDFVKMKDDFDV

CCCCCCCCCCCCC=O [tridecanal] was tested, and the “number of insects choosing hexane arm” value (S. furcifera adults) was 11, the “number of insects choosing volatilies arm” value (S. furcifera adults) was 13 and the “number of insects failed (no choice)” value (S. furcifera adults) was 16. For the same compound, the “Fluorescence competitive binding assay, fluorescence intensity” value (SfurOBP3; ligand concentration 2) was 42528 and 41583 and 43473, the “Fluorescence competitive binding assay, fluorescence intensity” value (SfurOBP3; ligand concentration 4) was 41210 and 39055 and 38819 and the “Fluorescence competitive binding assay, fluorescence intensity” value (SfurOBP3; ligand concentration 6) was 40763 and 42069 and 38391. For the same compound, the “Fluorescence competitive binding assay, fluorescence intensity” value (SfurOBP3; ligand concentration 8) was 40006 and 42611 and 39486, the “Fluorescence competitive binding assay, fluorescence intensity” value (SfurOBP3; ligand concentration 10) was 37952 and 40731 and 37192 and the “Fluorescence competitive binding assay, fluorescence intensity” value (SfurOBP3; ligand concentration 12) was 41103 and 37710 and 38844. The “Fluorescence competitive binding assay, fluorescence intensity” value (SfurOBP3; ligand concentration 14) was 39070 and 39869 and 40524, the “Fluorescence competitive binding assay, fluorescence intensity” value (SfurOBP3; ligand concentration 16) was 39064 and 38170 and 38620 and the “Fluorescence competitive binding assay, fluorescence intensity” value (SfurOBP3; ligand concentration 18) was 39885 and 40160 and 39604. For the same compound, the “Fluorescence competitive binding assay, fluorescence intensity” value (SfurOBP3; ligand concentration 20) was 39750 and 40400 and 40150, the pIC50 (SfurOBP3; SfurOBP3, protein and 1-NPN both 2.0 µM, competitor 2-20 µM, read-out: IC50) was < 4.70 and the pIC50 (SfurOBP11; SfurOBP11, protein and 1-NPN both 2.0 µM, competitor 2-20 µM, read-out: IC50) was < 4.70. The “Fluorescence intensity, fluorescence competitive binding assay, OBP11” value (“Fluorescence intensity … OBP11” below) (SfurOBP11; ligand concentration 2, replicate 1) was 24967, the “Fluorescence intensity … OBP11” value (SfurOBP11; ligand concentration 2, replicate 2) was 25926 and the “Fluorescence intensity … OBP11” value (SfurOBP11; ligand concentration 2, replicate 3) was 30699. For the same compound, the “Fluorescence intensity … OBP11” value (SfurOBP11; ligand concentration 4, replicate 1) was 25125, the “Fluorescence intensity … OBP11” value (SfurOBP11; ligand concentration 4, replicate 2) was 27382 and the “Fluorescence intensity … OBP11” value (SfurOBP11; ligand concentration 4, replicate 3) was 26896. The “Fluorescence intensity … OBP11” value (SfurOBP11; ligand concentration 6, replicate 1) was 26493, the “Fluorescence intensity … OBP11” value (SfurOBP11; ligand concentration 6, replicate 2) was 26335 and the “Fluorescence intensity … OBP11” value (SfurOBP11; ligand concentration 6, replicate 3) was 26650. For the same compound, the “Fluorescence intensity … OBP11” value (SfurOBP11; ligand concentration 8, replicate 1) was 24847, the “Fluorescence intensity … OBP11” value (SfurOBP11; ligand concentration 8, replicate 2) was 24250 and the “Fluorescence intensity … OBP11” value (SfurOBP11; ligand concentration 8, replicate 3) was 25420. The “Fluorescence intensity … OBP11” value (SfurOBP11; ligand concentration 10, replicate 1) was 24577, the “Fluorescence intensity … OBP11” value (SfurOBP11; ligand concentration 10, replicate 2) was 24121 and the “Fluorescence intensity … OBP11” value (SfurOBP11; ligand concentration 10, replicate 3) was 25032. For the same compound, the “Fluorescence intensity … OBP11” value (SfurOBP11; ligand concentration 12, replicate 1) was 26676, the “Fluorescence intensity … OBP11” value (SfurOBP11; ligand concentration 12, replicate 2) was 27183 and the “Fluorescence intensity … OBP11” value (SfurOBP11; ligand concentration 12, replicate 3) was 26168. The “Fluorescence intensity … OBP11” value (SfurOBP11; ligand concentration 14, replicate 1) was 24529, the “Fluorescence intensity … OBP11” value (SfurOBP11; ligand concentration 14, replicate 2) was 23823 and the “Fluorescence intensity … OBP11” value (SfurOBP11; ligand concentration 14, replicate 3) was 25235. For the same compound, the “Fluorescence intensity … OBP11” value (SfurOBP11; ligand concentration 16, replicate 1) was 23763, the “Fluorescence intensity … OBP11” value (SfurOBP11; ligand concentration 16, replicate 2) was 25792 and the “Fluorescence intensity … OBP11” value (SfurOBP11; ligand concentration 16, replicate 3) was 24713. For the same compound, the “Fluorescence intensity … OBP11” value (SfurOBP11; ligand concentration 18, replicate 1) was 29957, the “Fluorescence intensity … OBP11” value (SfurOBP11; ligand concentration 18, replicate 2) was 29942 and the “Fluorescence intensity … OBP11” value (SfurOBP11; ligand concentration 18, replicate 3) was 30678. For the same compound, the “Fluorescence intensity … OBP11” value (SfurOBP11; ligand concentration 20, replicate 1) was 31322, the “Fluorescence intensity … OBP11” value (SfurOBP11; ligand concentration 20, replicate 2) was 31721 and the “Fluorescence intensity … OBP11” value (SfurOBP11; ligand concentration 20, replicate 3) was 27795. The pIC50 (SfurOBP2; SfurOBP2, protein and 1-NPN both 2.0 µM, competitor 2-20 µM, read-out: IC50) was < 4.70, the “Fluorescence competitive binding assay, OBP2 (raw fluorescence reading)” value (SfurOBP2; ligand concentration 2 (unit not given), replicate column 1 of 3) was 15375 and the “Fluorescence competitive binding assay, OBP2 (raw fluorescence reading)” value (SfurOBP2; ligand concentration 2 (unit not given), replicate column 2 of 3) was 16260. For the same compound, the “Fluorescence competitive binding assay, OBP2 (raw fluorescence reading)” value (SfurOBP2; ligand concentration 2 (unit not given), replicate column 3 of 3) was 17114, the “Fluorescence competitive binding assay, OBP2 (raw fluorescence reading)” value (SfurOBP2; ligand concentration 4 (unit not given), replicate column 1 of 3) was 15250 and the “Fluorescence competitive binding assay, OBP2 (raw fluorescence reading)” value (SfurOBP2; ligand concentration 4 (unit not given), replicate column 2 of 3) was 17637. For the same compound, the “Fluorescence competitive binding assay, OBP2 (raw fluorescence reading)” value (SfurOBP2; ligand concentration 4 (unit not given), replicate column 3 of 3) was 17949, the “Fluorescence competitive binding assay, OBP2 (raw fluorescence reading)” value (SfurOBP2; ligand concentration 6 (unit not given), replicate column 1 of 3) was 17180 and the “Fluorescence competitive binding assay, OBP2 (raw fluorescence reading)” value (SfurOBP2; ligand concentration 6 (unit not given), replicate column 2 of 3) was 18194. The “Fluorescence competitive binding assay, OBP2 (raw fluorescence reading)” value (SfurOBP2; ligand concentration 6 (unit not given), replicate column 3 of 3) was 18919, the “Fluorescence competitive binding assay, OBP2 (raw fluorescence reading)” value (SfurOBP2; ligand concentration 8 (unit not given), replicate column 1 of 3) was 15100 and the “Fluorescence competitive binding assay, OBP2 (raw fluorescence reading)” value (SfurOBP2; ligand concentration 8 (unit not given), replicate column 2 of 3) was 16066. The “Fluorescence competitive binding assay, OBP2 (raw fluorescence reading)” value (SfurOBP2; ligand concentration 8 (unit not given), replicate column 3 of 3) was 16289, the “Fluorescence competitive binding assay, OBP2 (raw fluorescence reading)” value (SfurOBP2; ligand concentration 10 (unit not given), replicate column 1 of 3) was 16213 and the “Fluorescence competitive binding assay, OBP2 (raw fluorescence reading)” value (SfurOBP2; ligand concentration 10 (unit not given), replicate column 2 of 3) was 16940. The “Fluorescence competitive binding assay, OBP2 (raw fluorescence reading)” value (SfurOBP2; ligand concentration 10 (unit not given), replicate column 3 of 3) was 17695, the “Fluorescence competitive binding assay, OBP2 (raw fluorescence reading)” value (SfurOBP2; ligand concentration 12 (unit not given), replicate column 1 of 3) was 14964 and the “Fluorescence competitive binding assay, OBP2 (raw fluorescence reading)” value (SfurOBP2; ligand concentration 12 (unit not given), replicate column 2 of 3) was 18259. The “Fluorescence competitive binding assay, OBP2 (raw fluorescence reading)” value (SfurOBP2; ligand concentration 12 (unit not given), replicate column 3 of 3) was 16491, the “Fluorescence competitive binding assay, OBP2 (raw fluorescence reading)” value (SfurOBP2; ligand concentration 14 (unit not given), replicate column 1 of 3) was 16687 and the “Fluorescence competitive binding assay, OBP2 (raw fluorescence reading)” value (SfurOBP2; ligand concentration 14 (unit not given), replicate column 2 of 3) was 18876. For the same compound, the “Fluorescence competitive binding assay, OBP2 (raw fluorescence reading)” value (SfurOBP2; ligand concentration 14 (unit not given), replicate column 3 of 3) was 18074, the “Fluorescence competitive binding assay, OBP2 (raw fluorescence reading)” value (SfurOBP2; ligand concentration 16 (unit not given), replicate column 1 of 3) was 17882 and the “Fluorescence competitive binding assay, OBP2 (raw fluorescence reading)” value (SfurOBP2; ligand concentration 16 (unit not given), replicate column 2 of 3) was 16512. The “Fluorescence competitive binding assay, OBP2 (raw fluorescence reading)” value (SfurOBP2; ligand concentration 16 (unit not given), replicate column 3 of 3) was 18645, the “Fluorescence competitive binding assay, OBP2 (raw fluorescence reading)” value (SfurOBP2; ligand concentration 18 (unit not given), replicate column 1 of 3) was 18334 and the “Fluorescence competitive binding assay, OBP2 (raw fluorescence reading)” value (SfurOBP2; ligand concentration 18 (unit not given), replicate column 2 of 3) was 17452. For the same compound, the “Fluorescence competitive binding assay, OBP2 (raw fluorescence reading)” value (SfurOBP2; ligand concentration 18 (unit not given), replicate column 3 of 3) was 17782, the “Fluorescence competitive binding assay, OBP2 (raw fluorescence reading)” value (SfurOBP2; ligand concentration 20 (unit not given), replicate column 1 of 3) was 16896 and the “Fluorescence competitive binding assay, OBP2 (raw fluorescence reading)” value (SfurOBP2; ligand concentration 20 (unit not given), replicate column 2 of 3) was 19235. For the same compound, the “Fluorescence competitive binding assay, OBP2 (raw fluorescence reading)” value (SfurOBP2; ligand concentration 20 (unit not given), replicate column 3 of 3) was 19174, the “Fluorescence competitive binding assay, fluorescence intensity” value (SfurOBP1; ligand concentration 2 (μM)) was 7938 and 8209 and 9100 and the “Fluorescence competitive binding assay, fluorescence intensity” value (SfurOBP1; ligand concentration 4 (μM)) was 8199 and 9497 and 8248. The “Fluorescence competitive binding assay, fluorescence intensity” value (SfurOBP1; ligand concentration 6 (μM)) was 9970 and 9490 and 9404, the “Fluorescence competitive binding assay, fluorescence intensity” value (SfurOBP1; ligand concentration 8 (μM)) was 9879 and 9942 and 9021 and the “Fluorescence competitive binding assay, fluorescence intensity” value (SfurOBP1; ligand concentration 10 (μM)) was 11694 and 10870 and 12178. The “Fluorescence competitive binding assay, fluorescence intensity” value (SfurOBP1; ligand concentration 12 (μM)) was 10792 and 13471 and 12081, the “Fluorescence competitive binding assay, fluorescence intensity” value (SfurOBP1; ligand concentration 14 (μM)) was 13762 and 12603 and 7069 and the “Fluorescence competitive binding assay, fluorescence intensity” value (SfurOBP1; ligand concentration 16 (μM)) was 15566 and 12262 and 13672. The “Fluorescence competitive binding assay, fluorescence intensity” value (SfurOBP1; ligand concentration 18 (μM)) was 13469 and 13374 and 13884, the “Fluorescence competitive binding assay, fluorescence intensity” value (SfurOBP1; ligand concentration 20 (μM)) was 16296 and 16551 and 15519 and the pIC50 (SfurOBP1; SfurOBP1, protein and 1-NPN both 2.0 µM, competitor 2-20 µM, read-out: IC50) was < 4.70.
